pIC50: −log10 of the molar value.
Key:
[1] = target: Platelet-derived growth factor receptor alpha (Homo sapiens) (UniProt P16234); test: Inhibition of GST tagged recombinant human PGFRA cytoplasmic domain (550 to 1089 residues) expressed in baculovirus at 500 nM by Z'-LYTE assay
[2] = target: Protein kinase C theta type (Homo sapiens) (UniProt Q04759); test: Inhibition of His tagged recombinant full length human PRKCQ expressed in baculovirus at 500 nM by Z'-LYTE assay
[3] = target: Protein kinase C beta type (Homo sapiens) (UniProt P05771); test: Inhibition of recombinant full length human PRKCB1 expressed in baculovirus at 500 nM by Z'-LYTE assay
[4] = target: Protein kinase C alpha type (Homo sapiens) (UniProt P17252); test: Inhibition of recombinant full length human PRKCA expressed in baculovirus at 500 nM by Z'-LYTE assay
[5] = target: Dual specificity mitogen-activated protein kinase kinase 1 (Homo sapiens) (UniProt Q02750); test: Inhibition of His tagged recombinant full length human MEK1 expressed in baculovirus at 500 nM by Z'-LYTE assay
Sequence of Dual specificity mitogen-activated protein kinase kinase 1 (Homo sapiens) (Q02750 whole entry): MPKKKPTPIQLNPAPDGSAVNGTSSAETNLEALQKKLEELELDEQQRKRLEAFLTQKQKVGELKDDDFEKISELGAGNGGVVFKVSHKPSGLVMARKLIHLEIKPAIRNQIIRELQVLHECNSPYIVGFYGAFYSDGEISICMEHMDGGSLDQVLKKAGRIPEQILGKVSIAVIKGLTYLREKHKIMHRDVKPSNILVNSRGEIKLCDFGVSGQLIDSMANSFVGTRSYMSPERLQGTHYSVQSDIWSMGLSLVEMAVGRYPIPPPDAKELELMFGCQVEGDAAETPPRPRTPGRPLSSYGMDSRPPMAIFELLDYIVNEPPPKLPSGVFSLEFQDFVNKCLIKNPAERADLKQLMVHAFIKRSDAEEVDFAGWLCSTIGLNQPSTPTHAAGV

[6] = target: Tyrosine-protein kinase Lyn (Homo sapiens) (UniProt P07948); test: Inhibition of His tagged C-terminal recombinant full length human LYN B expressed in baculovirus at 500 nM by Z'-LYTE assay
Sequence of Tyrosine-protein kinase Lyn (Homo sapiens) (P07948 2-512 limits assumed): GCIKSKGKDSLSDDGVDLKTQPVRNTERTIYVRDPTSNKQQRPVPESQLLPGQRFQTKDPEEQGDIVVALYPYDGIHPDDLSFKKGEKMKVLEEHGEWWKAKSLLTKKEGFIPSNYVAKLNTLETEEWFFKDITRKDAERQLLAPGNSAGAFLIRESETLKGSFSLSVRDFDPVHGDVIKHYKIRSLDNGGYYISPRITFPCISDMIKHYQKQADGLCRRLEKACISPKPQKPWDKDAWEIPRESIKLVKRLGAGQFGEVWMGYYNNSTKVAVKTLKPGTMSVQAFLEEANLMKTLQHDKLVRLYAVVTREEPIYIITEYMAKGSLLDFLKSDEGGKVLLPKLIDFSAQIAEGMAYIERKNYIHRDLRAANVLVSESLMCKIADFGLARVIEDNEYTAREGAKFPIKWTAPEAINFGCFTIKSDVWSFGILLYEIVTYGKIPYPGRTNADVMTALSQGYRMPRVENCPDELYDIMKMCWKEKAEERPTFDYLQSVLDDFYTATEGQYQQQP

[7] = target: Serine/threonine-protein kinase pim-2 (Homo sapiens) (UniProt Q9P1W9); test: Inhibition of GST tagged recombinant full length human PIM2 expressed in baculovirus at 500 nM by Z'-LYTE assay
[8] = target: Epidermal growth factor receptor (Homo sapiens, UniProt P00533); test: Inhibition of recombinant human GST-tagged EGFR cytoplasmic domain (668 to 1210 residues) expressed in baculovirus by Z'-LYTE assay
[9] = target: Macrophage colony-stimulating factor 1 receptor (Homo sapiens) (UniProt P07333); test: Inhibition of His tagged recombinant human FMS cytoplasmic domain (538 to 910 residues) expressed in baculovirus at 500 nM by Z'-LYTE assay
[10] = target: Proto-oncogene tyrosine-protein kinase receptor Ret (Homo sapiens) (UniProt P07949); test: Inhibition of GST tagged recombinant human RET cytoplasmic domain (658 to 1114 residues) expressed in baculovirus at 500 nM by Z'-LYTE assay
[11] = target: Proto-oncogene tyrosine-protein kinase Src (Homo sapiens) (UniProt P12931); test: Inhibition of recombinant full length human C-terminal His-tagged SRC expressed in baculovirus at 500 nM by Z'-LYTE assay
[12] = target: Mast/stem cell growth factor receptor Kit (Homo sapiens) (UniProt P10721); test: Inhibition of His tagged recombinant human KIT cytoplasmic domain (544 to 976 residues) expressed in baculovirus at 500 nM by Z'-LYTE assay
[13] = target: Receptor tyrosine-protein kinase erbB-2 (Homo sapiens) (UniProt P04626); test: Inhibition of His tagged recombinant human ErbB2 cytoplasmic domain (676 to 1255 residues) expressed in baculovirus at 500 nM by Z'-LYTE assay
[14] = target: Mitogen-activated protein kinase 8 (Homo sapiens) (UniProt P45983); test: Inhibition of His tagged recombinant full length human JNK1 expressed in baculovirus at 500 nM by Z'-LYTE assay
Sequence of Mitogen-activated protein kinase 8 (Homo sapiens) (P45983 whole entry): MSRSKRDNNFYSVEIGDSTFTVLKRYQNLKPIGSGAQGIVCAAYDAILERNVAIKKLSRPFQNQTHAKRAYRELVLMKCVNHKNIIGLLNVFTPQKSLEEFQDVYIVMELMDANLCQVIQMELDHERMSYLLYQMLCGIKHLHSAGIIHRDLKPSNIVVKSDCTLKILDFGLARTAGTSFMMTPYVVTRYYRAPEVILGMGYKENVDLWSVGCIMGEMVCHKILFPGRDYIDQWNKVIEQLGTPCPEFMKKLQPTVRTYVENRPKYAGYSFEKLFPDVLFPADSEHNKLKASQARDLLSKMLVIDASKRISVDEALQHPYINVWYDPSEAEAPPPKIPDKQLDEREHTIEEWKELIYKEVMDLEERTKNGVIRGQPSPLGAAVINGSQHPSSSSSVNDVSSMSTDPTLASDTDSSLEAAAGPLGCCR

[15] = target: Mitogen-activated protein kinase 14 (Homo sapiens) (UniProt Q16539); test: Inhibition of GST tagged recombinant full length human p38 alpha expressed in Escherichia coli at 500 nM by Z'-LYTE assay
[16] = target: Tyrosine-protein kinase Lyn (Homo sapiens) (UniProt P07948); test: Inhibition of recombinant full length human N-terminal GST tagged LYN A expressed in insect cells at 500 nM by Z'-LYTE assay
[17] = target: Angiopoietin-1 receptor (Homo sapiens) (UniProt Q02763); test: Inhibition of GST tagged recombinant human Tie2 cytoplasmic domain (817 to 1101 residues) expressed in baculovirus at 500 nM by Z'-LYTE assay
[18] = target: Receptor tyrosine-protein kinase erbB-4 (Homo sapiens) (UniProt Q15303); test: Inhibition of GST tagged recombinant human ERBB4 cytoplasmic domain (708 to 993 residues) expressed in baculovirus at 500 nM by Z'-LYTE assay
[19] = target: Vascular endothelial growth factor receptor 3 (Homo sapiens) (UniProt P35916); test: Inhibition of GST tagged recombinant human FLT4 cytoplasmic domain (800 to 1297 residues) expressed in baculovirus at 500 nM by Z'-LYTE assay
[20] = target: Mitogen-activated protein kinase 1 (Homo sapiens) (UniProt P28482); test: Inhibition of GST tagged recombinant full length human ERK2 expressed in Escherichia coli at 500 nM by Z'-LYTE assay
[21] = target: Tyrosine-protein kinase ABL1 (Homo sapiens) (UniProt P00519); test: Inhibition of His tagged recombinant full length human ABL1 expressed in baculovirus at 500 nM by Z'-LYTE assay
Sequence of Tyrosine-protein kinase ABL1 (Homo sapiens) (P00519 whole entry): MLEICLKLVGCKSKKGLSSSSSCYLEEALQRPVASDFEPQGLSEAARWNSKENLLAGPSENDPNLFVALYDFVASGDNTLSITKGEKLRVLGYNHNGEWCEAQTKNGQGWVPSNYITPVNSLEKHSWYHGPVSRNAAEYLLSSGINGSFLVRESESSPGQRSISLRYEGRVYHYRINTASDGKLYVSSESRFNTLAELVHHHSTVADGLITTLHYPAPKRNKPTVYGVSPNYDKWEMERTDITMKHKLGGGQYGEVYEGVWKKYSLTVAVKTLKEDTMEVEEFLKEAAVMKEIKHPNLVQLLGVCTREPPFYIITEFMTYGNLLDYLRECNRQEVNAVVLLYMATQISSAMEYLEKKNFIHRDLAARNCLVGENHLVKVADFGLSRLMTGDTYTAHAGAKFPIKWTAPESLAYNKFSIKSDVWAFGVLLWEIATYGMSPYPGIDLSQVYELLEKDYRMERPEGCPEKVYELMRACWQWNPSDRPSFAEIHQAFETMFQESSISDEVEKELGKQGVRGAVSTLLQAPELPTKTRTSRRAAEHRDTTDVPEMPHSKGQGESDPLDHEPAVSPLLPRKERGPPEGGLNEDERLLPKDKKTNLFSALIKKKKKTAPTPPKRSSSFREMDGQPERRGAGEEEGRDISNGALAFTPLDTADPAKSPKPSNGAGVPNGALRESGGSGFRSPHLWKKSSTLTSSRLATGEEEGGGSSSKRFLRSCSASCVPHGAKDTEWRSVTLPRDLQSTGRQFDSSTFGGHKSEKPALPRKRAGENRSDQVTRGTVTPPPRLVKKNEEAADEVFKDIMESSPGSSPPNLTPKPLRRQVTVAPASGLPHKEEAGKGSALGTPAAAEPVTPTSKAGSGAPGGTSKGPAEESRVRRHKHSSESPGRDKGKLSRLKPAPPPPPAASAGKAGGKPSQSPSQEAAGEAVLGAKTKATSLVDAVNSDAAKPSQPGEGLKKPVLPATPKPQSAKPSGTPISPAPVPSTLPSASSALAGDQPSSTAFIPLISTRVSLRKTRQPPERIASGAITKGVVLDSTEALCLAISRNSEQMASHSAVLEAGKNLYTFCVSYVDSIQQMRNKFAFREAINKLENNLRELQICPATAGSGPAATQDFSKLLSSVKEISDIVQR

[22] = target: Serine/threonine-protein kinase B-raf (Homo sapiens) (UniProt P15056); test: Inhibition of GST tagged recombinant full length human BRAF expressed in baculovirus at 500 nM by Z'-LYTE assay
[23] = target: Tyrosine-protein kinase Fyn (Homo sapiens) (UniProt P06241); test: Inhibition of recombinant full length human C-terminal His-tagged FYN expressed in baculovirus at 500 nM by Z'-LYTE assay
[24] = target: Tyrosine-protein kinase Blk (Homo sapiens) (UniProt P51451); test: Inhibition of His tagged recombinant full length human BLK expressed in baculovirus at 500 nM by Z'-LYTE assay
[25] = target: Ephrin type-A receptor 1 (Homo sapiens) (UniProt P21709); test: Inhibition of GST tagged recombinant human EPHA1 cytoplasmic domain (568 to 976 residues) expressed in baculovirus at 500 nM by Z'-LYTE assay
[26] = target: Testis-specific serine/threonine-protein kinase 2 (Homo sapiens) (UniProt Q96PF2); test: Inhibition of His tagged recombinant full length human STK22B expressed in baculovirus at 500 nM by Z'-LYTE assay
[27] = target: Tyrosine-protein kinase Fgr (Homo sapiens) (UniProt P09769); test: Inhibition of recombinant full length human C-terminal His-tagged FGR expressed in baculovirus at 500 nM by Z'-LYTE assay
Sequence of Tyrosine-protein kinase Fgr (Homo sapiens) (P09769 2-529 limits assumed): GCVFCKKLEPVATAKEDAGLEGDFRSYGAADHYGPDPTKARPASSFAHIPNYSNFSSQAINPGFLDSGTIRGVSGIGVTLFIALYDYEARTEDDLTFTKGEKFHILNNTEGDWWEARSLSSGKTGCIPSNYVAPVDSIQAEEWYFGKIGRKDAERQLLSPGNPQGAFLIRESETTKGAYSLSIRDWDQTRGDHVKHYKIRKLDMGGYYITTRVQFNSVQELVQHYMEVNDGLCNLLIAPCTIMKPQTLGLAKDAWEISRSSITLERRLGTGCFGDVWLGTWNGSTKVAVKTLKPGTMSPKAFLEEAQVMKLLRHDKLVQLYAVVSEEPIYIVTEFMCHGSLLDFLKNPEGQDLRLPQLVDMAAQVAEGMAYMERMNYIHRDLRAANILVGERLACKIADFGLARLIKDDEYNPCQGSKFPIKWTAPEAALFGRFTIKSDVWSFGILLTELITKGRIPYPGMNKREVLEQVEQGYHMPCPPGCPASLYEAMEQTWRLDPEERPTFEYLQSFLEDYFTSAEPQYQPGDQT

[28] = target: Tyrosine-protein kinase CSK (Homo sapiens) (UniProt P41240); test: Inhibition of His tagged recombinant full length human CSK expressed in Escherichia coli at 500 nM by Z'-LYTE assay
[29] = target: Vascular endothelial growth factor receptor 1 (Homo sapiens) (UniProt P17948); test: Inhibition of GST tagged recombinant human FLT1 cytoplasmic domain (781 to 1338 residues) expressed in baculovirus at 500 nM by Z'-LYTE assay
[30] = target: Tyrosine-protein kinase FRK (Homo sapiens) (UniProt P42685); test: Inhibition of GST tagged recombinant full length human FRK expressed in baculovirus at 500 nM by Z'-LYTE assay

Sequence of Protein kinase C theta type (Homo sapiens) (Q04759 whole entry, looked up): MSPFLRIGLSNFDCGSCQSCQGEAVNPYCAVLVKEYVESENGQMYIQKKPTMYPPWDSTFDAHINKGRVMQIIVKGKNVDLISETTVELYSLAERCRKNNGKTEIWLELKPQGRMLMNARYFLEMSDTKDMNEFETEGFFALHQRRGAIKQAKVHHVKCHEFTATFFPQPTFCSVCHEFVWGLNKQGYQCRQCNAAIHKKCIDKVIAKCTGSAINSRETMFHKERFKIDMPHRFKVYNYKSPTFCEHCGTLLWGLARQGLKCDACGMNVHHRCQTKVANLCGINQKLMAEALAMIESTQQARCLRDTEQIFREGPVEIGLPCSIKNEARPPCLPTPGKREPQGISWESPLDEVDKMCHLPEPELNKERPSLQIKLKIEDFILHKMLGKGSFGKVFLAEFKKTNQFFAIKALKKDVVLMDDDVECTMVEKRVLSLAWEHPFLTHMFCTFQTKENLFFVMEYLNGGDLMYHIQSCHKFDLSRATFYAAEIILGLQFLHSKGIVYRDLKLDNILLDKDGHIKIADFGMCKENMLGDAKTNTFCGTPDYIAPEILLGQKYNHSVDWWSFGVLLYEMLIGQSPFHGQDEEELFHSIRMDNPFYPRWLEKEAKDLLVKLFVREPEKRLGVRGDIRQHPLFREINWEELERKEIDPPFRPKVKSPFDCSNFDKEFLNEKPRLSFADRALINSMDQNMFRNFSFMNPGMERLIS
Sequence of Platelet-derived growth factor receptor alpha (Homo sapiens) (P16234 whole entry, the tested form may be a part): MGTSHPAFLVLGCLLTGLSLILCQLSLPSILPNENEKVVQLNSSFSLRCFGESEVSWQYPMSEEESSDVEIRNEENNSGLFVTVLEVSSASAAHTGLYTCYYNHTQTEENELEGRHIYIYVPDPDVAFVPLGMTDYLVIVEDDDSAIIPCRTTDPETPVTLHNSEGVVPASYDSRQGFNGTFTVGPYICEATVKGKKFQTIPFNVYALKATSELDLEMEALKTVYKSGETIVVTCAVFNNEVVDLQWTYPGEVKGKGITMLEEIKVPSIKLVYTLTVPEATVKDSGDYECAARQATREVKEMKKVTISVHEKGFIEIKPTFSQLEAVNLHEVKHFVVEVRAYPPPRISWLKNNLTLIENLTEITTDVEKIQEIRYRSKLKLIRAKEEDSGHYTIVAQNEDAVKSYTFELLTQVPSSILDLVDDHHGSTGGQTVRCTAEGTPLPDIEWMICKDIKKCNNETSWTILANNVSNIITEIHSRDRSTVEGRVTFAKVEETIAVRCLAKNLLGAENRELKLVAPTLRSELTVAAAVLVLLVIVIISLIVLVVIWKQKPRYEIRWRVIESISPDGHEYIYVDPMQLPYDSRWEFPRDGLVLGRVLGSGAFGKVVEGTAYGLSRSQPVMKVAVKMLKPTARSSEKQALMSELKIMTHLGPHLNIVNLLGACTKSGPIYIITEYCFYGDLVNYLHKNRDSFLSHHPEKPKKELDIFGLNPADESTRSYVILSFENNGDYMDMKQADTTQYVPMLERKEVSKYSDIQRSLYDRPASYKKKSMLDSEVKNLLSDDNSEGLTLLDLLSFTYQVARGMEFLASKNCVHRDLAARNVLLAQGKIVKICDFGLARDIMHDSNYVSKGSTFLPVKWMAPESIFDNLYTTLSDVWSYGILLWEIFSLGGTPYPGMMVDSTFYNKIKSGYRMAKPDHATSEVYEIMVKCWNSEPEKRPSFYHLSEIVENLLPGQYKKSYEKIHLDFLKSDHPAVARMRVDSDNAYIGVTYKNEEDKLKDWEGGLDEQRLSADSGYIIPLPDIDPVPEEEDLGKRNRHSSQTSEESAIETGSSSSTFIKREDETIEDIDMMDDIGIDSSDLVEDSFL

inhibition [1]	inhibition [2]	inhibition [3]	inhibition [4]	inhibition [5]	inhibition [6]	pIC50 [8]	inhibition [9]	inhibition [10]	inhibition [11]	inhibition [12]	inhibition [13]	inhibition [14]	inhibition [15]	inhibition [16]	inhibition [17]	inhibition [18]	inhibition [19]	inhibition [20]	inhibition [21]	SMILES	also measured
5%	-4%	-2%	2%	7%	–	–	–	–	–	–	–	–	–	–	–	–	–	–	–	C#Cc1cccc(Nc2ncnc3cc(OCCOC)c(OCCOC)cc23)c1	–
27%	10%	-10%	-9%	10%	41%	9.40	79%	11%	12%	19%	23%	1%	15%	35%	9%	32%	4%	-3%	37%	C[C@@H](Nc1ncnc2oc(-c3ccc(NCCN(C)C)cc3)cc12)c1ccccc1	inhibition [7]: -3%; inhibition [22]: 8%; inhibition [23]: 13%; inhibition [24]: 3%; inhibition [25]: 26%; inhibition [26]: -1%; inhibition [27]: 60%; inhibition [28]: 12%; inhibition [29]: -2%; inhibition [30]: 31%
22%	7%	–	–	10%	46%	9.22	78%	11%	17%	7%	15%	6%	16%	37%	8%	18%	4%	-1%	30%	C[C@@H](Nc1ncnc2oc(-c3ccc(NCCN4CCCCC4)cc3)cc12)c1ccccc1	inhibition [22]: 9%; inhibition [23]: 12%; inhibition [24]: 0%; inhibition [25]: 34%; inhibition [26]: 2%; inhibition [27]: 56%; inhibition [28]: 8%; inhibition [29]: 1%; inhibition [30]: 21%

Source: ChEMBL document CHEMBL3856204, “Chiral 6-aryl-furo[2,3-d]pyrimidin-4-amines as EGFR inhibitors” (Eur J Med Chem, 2016)
